# Laboratory results: patent US20020061836A1, “Methods for altering SXR activation using peptide mimetic HIV protease inhibitor SXR ligands” (priority 2000, published 2002)
# Where two headings read alike, the source gives them in different places.
# How the values were obtained:
# [1] = target: T1, mouse CARβ (Mus musculus, UniProt O35627); test: Nuclear receptor specificity transfection assay / LXRE×3-TK-luc reporter with CARβ in CV-1 cells; format: cell-based
# T1 sequence (O35627 1-358): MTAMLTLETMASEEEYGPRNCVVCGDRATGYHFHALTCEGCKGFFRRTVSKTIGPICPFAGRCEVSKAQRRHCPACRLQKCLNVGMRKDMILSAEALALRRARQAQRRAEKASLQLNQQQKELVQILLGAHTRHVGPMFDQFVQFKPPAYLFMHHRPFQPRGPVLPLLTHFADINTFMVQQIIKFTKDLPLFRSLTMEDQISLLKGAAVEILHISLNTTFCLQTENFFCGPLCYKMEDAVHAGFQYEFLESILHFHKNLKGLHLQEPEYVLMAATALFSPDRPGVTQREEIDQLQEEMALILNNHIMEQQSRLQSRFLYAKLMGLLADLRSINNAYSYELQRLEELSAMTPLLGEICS
# [2] = tested on: MRP2 mRNA; test: Northern analysis of MRP2 expression in primary human hepatocytes; format: cell-based
# Procedure: (§1) Northern Blot Analysis—Primary human hepatocytes were obtained from Clonetics (Walkersville, Md.) and cultured according to the vendors instructions. Cells were treated with the indicated compounds for 24 hours and total RNA was isolated using the Trizol reagent.
# (§2) After 24 hour exposure to the compounds, total RNA was prepared and analyzed by northern analysis using probes for MRP2 and the GAPDH control. […] CV-1 cells were transiently transfected with a Gal4 reporter and a vector expressing Gal4-fused to the ligand binding domain of human SXR (Gal-SXR).
# (§3) After 24 hour exposure to the compounds, total RNA was prepared and analyzed by northern analysis using probes for MDR1 and the GAPDH control.
# [3] = target: T2, human SXR ligand binding domain (Homo sapiens, UniProt O75469); test: Gal-L-SXR (Gal-SXR) Gal4 reporter transient transfection assay in CV-1 cells; settings: CV-1 cells; for activation of Gal-L-SXR chimeric receptor: 10 μM compound (LG268 100 nM), about 24 h
# T2 sequence (O75469 107-434 limits assumed): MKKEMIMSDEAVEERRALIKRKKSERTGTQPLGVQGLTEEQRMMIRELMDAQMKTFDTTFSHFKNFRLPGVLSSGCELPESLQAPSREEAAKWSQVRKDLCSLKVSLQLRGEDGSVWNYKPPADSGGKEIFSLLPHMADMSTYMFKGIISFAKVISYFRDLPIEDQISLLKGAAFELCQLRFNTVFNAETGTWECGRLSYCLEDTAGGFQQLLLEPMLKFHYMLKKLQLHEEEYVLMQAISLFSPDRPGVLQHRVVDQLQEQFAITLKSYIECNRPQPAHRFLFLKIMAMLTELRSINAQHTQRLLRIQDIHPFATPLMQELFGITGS
# Excerpt: Use of a standard model heterologous cell system to reconstitute SXR agonist and antagonist responsiveness allows SXR activity to be monitored in the absence of the metabolic events which may obscure the process being tested. Any suitable heterologous cell system may be used to test the activation of potential or known SXR nuclear receptor ligands, as long as the cells are capable of being transiently transfected with the appropriate DNA which expresses receptors, reporter genes, response elements, and the like. Cells which constitutively express one or more of the necessary genes may be used as well. Cell systems that are suitable for the transient expression of mammalian genes and which are amenable to maintenance in culture are well known to those skilled in the art. […] Suitable reporter gene constructs are well known to skilled workers in the fields of biochemistry and molecular biology. Activity of the reporter gene can be conveniently normalized to the internal control and the data plotted as fold activation relative to untreated cells.
# (§4) The Gal4 reporter activity was normalized to the internal β-galactosidase control and the data plotted as fold activation relative to untreated cells. All transfections contained the Gal4 reporter and a β-galactosidase expression vector as an internal control.
# (§5) Izbicka et al., Ann. Oncol.
# (§6) Gal-PXR containing the ligand binding domain of mouse PXR (#AF031814) was obtained from Bruce Blumberg.
# Transient Transffection Assays—CV-1 cells were grown and transfected as described.
# [4] = target: T3, mouse PPARδ (Mus musculus, UniProt P35396); test: Nuclear receptor specificity transfection assay; format: cell-based
# T3 construct: expressed in transfected cells; host or cells: CV-1
# T3 sequence (P35396 1-440): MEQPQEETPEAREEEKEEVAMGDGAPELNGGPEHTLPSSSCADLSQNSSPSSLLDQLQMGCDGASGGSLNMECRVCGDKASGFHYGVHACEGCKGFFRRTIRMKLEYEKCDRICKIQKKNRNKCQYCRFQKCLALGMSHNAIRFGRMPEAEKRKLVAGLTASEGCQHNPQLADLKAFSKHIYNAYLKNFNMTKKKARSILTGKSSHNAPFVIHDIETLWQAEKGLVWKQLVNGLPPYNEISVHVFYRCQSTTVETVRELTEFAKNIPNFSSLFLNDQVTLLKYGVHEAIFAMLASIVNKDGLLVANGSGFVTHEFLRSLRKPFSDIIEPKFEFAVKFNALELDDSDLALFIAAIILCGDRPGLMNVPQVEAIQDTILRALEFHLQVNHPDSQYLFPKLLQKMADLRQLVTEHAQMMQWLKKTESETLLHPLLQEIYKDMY
# [5] = target: mouse PXR (Mus musculus, UniProt O54915); settings: 10 μM
# Procedure: as §6, §2
# CV-1 cells were transiently transfected with Gal-SXR as in FIG. 21 above. […] Fold activation was determined relative to untreated cells. […] CV-1 cells were transiently transfected with Gal-PXR as in FIG. 21 above. […] FIG. 26: Coactivator recruitment by various HIV protease inhibitors SXR. […] Specific binding was measured as described in the Materials and Methods. Error bars indicate the range of duplicate data points.
# [6] = target: T4, human LXRα (Homo sapiens, UniProt Q13133); test: Nuclear receptor specificity transfection assay; format: cell-based
# T4 construct: expressed in transfected cells; host or cells: CV-1
# T4 sequence (Q13133 1-447): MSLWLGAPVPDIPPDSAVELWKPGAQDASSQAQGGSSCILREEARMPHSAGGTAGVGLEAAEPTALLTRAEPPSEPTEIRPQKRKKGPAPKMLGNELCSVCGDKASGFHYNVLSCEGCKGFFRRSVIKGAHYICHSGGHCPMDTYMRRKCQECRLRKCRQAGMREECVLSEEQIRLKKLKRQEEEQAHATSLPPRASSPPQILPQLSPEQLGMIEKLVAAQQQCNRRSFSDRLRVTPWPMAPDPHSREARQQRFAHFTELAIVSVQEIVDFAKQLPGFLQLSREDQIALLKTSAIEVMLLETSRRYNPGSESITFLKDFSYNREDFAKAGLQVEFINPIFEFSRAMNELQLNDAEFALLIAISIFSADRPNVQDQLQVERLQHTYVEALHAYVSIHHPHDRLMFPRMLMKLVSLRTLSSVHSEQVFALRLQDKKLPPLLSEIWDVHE
# [7] = tested on: LS180 human colon cancer cells; test: [14C]-paclitaxel efflux from pretreated LS180 cells; format: cell-based; settings: LS180 cells induced 48 hours with 10 μM paclitaxel, 10 μM docetaxel or 100 nM LG268
# Procedure: Taxane-induced drug efflux was measured using pretreated LS180 human colon cancer cells. The rate of drug efflux was measured. […] Individual data points are the means of triplicate determinations, error bars represent standard deviation and the lines are lines of regression. The slope of each line (rate of efflux) was compared to the slope obtained in the control (untreated) cells using an analysis of covariance. […] The entire experiment was performed three times with similar results. […] The cells were then incubated in media supplemented with 10 μM [^14C]-paclitaxel (4.9 μCi/umol, Moravek Biochemicals, Brea, Calif.) for 15 minutes. The uptake of ^14C-paclitaxel reached maximum levels at 10-12 minutes (data not shown). After 15 minutes, the cells were then rapidly centrifuged through silicone oil to remove all traces of extracellular radioactivity, resuspended in fresh media, and cell counts determined. At multiple time points over the next 10 minutes, triplicate aliquots of the cell suspension (approx. 1×10^5 cells/aliquot) were again centrifuged through silicon oil and the radioactivity in the cell pellet measured by quench-corrected liquid scintillation counting. The rate of [^14C]-paclitaxel efflux was determined as the slope of the [^14C]-paclitaxel versus time plots using all data. The slope for each inducer was compared to the slope obtained in the control (untreated) cells using an analysis of covariance.
# [8] = target: T5, human RARα (Homo sapiens, UniProt P10276); test: Nuclear receptor specificity transfection assay; format: cell-based; settings: 3 μM ritonavir
# T5 construct: expressed in transfected cells; host or cells: CV-1
# [9] = target: T6, mouse PPARα (Mus musculus, UniProt P23204); test: Nuclear receptor specificity transfection assay; format: cell-based
# T6 construct: expressed in transfected cells; host or cells: CV-1
# T6 sequence (P23204 1-468): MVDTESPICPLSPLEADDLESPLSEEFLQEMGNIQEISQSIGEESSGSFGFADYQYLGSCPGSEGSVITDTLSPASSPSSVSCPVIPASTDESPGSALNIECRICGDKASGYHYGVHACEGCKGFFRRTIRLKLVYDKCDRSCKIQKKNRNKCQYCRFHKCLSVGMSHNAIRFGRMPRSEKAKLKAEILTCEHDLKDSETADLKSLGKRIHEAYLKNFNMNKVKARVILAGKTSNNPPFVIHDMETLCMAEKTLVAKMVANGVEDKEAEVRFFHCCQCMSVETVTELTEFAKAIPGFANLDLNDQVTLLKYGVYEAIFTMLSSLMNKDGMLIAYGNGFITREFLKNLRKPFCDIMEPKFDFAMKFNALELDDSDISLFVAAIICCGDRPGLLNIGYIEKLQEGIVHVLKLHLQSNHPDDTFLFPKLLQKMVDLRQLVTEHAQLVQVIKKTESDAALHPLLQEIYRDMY
# [10] = target: T7, FXR (Homo sapiens, UniProt Q96RI1); test: Nuclear receptor specificity transfection assay; format: cell-based; settings: 3 μM ritonavir
# T7 construct: expressed in transfected cells; host or cells: CV-1
# [11] = tested on: MDR1 mRNA; test: Northern analysis of MDR1 expression in human LS180 cells; format: cell-based; settings: 3 μM ritonavir, 24 hour
# Procedure: as §5, §1, §3
# [12] = tested on: thyroid hormone receptor β (TRβ); settings: 3 μM ritonavir
# [13] = target: T8, human RXRα ligand binding domain (Homo sapiens, UniProt P19793); test: Gal-L-RXR Gal4 reporter transient transfection assay in CV-1 cells; format: cell-based
# T8 construct: expressed in transfected cells; host or cells: CV-1
# T8 sequence (P19793 203-462): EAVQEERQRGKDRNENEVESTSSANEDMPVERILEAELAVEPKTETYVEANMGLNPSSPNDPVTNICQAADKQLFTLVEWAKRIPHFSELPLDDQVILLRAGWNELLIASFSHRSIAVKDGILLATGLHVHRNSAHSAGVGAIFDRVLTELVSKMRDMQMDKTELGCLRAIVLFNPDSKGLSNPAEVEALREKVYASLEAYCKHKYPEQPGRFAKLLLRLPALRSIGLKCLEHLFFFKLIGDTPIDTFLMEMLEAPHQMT
# Excerpt: as §4
# [14] = target: T9, mouse PPARγ (Mus musculus, UniProt P37238); test: Nuclear receptor specificity transfection assay; format: cell-based; settings: 3 μM ritonavir
# T9 construct: expressed in transfected cells; host or cells: CV-1
# [15] = target: human ERα (Homo sapiens, UniProt P03372); settings: 3 μM ritonavir
# Sequence of human ERα (P03372 whole entry): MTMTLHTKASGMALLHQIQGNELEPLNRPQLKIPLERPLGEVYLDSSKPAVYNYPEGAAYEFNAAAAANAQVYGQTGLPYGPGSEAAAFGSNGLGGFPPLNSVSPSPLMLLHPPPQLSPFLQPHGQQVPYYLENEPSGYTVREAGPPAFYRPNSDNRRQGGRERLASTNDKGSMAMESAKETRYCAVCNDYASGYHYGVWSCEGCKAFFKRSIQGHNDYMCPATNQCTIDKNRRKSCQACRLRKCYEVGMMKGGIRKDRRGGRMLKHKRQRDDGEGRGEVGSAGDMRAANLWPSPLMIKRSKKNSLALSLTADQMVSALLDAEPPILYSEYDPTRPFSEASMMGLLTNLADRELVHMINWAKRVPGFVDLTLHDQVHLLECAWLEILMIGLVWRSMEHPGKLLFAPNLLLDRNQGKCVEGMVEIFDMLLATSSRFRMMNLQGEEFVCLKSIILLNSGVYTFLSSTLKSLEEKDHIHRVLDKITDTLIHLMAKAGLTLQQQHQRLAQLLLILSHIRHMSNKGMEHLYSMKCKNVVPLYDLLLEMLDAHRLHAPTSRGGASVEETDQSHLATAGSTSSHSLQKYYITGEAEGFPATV
# Sequence of mouse PXR (O54915 143-430 limits assumed): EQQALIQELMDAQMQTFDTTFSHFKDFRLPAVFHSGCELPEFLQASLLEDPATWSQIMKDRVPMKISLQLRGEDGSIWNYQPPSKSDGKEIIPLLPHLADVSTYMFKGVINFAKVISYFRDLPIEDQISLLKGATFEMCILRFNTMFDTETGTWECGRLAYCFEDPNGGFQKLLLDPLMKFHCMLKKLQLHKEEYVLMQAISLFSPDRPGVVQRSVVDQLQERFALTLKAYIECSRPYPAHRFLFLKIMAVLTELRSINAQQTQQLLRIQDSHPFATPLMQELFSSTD
# T7 sequence (Q96RI1 whole entry, species assumed): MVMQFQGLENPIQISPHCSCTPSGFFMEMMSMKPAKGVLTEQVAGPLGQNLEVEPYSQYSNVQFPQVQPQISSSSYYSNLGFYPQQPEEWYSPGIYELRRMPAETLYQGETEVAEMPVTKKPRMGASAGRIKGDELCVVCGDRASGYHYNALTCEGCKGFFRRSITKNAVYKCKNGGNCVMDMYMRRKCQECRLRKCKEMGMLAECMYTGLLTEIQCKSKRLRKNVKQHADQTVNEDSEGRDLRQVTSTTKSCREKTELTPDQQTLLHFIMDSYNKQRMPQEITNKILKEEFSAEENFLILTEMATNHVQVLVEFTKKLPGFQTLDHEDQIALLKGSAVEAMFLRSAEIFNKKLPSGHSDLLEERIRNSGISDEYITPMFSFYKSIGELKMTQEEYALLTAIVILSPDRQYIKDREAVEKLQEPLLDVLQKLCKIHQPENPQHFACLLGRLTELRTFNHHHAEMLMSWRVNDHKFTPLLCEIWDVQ
# T9 sequence (P37238 whole entry): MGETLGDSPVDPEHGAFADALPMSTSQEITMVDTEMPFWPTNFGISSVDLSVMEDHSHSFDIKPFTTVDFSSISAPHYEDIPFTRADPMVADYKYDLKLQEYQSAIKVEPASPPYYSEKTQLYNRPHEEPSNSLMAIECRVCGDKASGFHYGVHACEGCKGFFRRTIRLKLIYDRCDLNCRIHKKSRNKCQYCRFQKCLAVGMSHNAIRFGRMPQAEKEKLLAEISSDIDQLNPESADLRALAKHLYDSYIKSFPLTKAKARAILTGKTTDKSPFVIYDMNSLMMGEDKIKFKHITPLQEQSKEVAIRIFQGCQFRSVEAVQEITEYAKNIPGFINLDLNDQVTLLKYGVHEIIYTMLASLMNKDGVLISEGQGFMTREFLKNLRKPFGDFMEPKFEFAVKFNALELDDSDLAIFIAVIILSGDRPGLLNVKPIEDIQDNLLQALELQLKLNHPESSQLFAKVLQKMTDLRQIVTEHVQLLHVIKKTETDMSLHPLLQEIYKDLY
# T5 sequence (P10276 whole entry): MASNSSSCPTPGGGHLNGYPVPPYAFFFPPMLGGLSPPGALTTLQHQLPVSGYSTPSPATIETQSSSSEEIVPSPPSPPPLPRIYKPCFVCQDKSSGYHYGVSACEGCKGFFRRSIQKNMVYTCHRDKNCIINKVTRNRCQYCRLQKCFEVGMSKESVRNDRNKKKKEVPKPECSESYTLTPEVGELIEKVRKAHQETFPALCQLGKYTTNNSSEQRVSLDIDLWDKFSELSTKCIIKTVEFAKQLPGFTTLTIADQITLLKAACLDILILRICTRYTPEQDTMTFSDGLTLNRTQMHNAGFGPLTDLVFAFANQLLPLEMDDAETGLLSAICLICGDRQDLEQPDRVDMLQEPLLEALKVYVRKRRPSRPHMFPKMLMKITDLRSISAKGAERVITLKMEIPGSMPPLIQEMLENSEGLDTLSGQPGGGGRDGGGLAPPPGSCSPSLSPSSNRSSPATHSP
compound,measurement,setting,value
C[C@@]12CCC[C@H]1[C@@H]1CC[C@H]3C[C@@H](O)CC[C@]3(C)[C@H]1CC2 [androstanol],fold repression by cognate ligand (positive control),[1]; 5 μM,50 fold
same,effect on transcriptional activity of CARβ,"[1]; LXRE×3-TK-luc reporter, 5 μM androstanol or 50 nM ET-743",inhibited
hyperforin,MRP2 mRNA expression,[2],induced expression
CC(=O)O[C@H]1C(=O)[C@@]2(C)[C@H]([C@H](OC(=O)c3ccccc3)[C@]3(O)C[C@H](OC(=O)[C@H](O)[C@@H](NC(=O)c4ccccc4)c4ccc(O)cc4)C(C)=C1C3(C)C)[C@]1(OC(C)=O)CO[C@@H]1C[C@@H]2O [3′-p-hydroxypaclitaxel],activation of Gal-L-SXR chimeric receptor,[3],No activation
CCCCC[C@H](O)/C=C/[C@@H]1[C@H]2C/C(=C/CCCC(=O)O)C[C@H]2C[C@H]1O [arbaprostacyclin],fold activation by cognate ligand (positive control),[4]; 1 μM,14 fold
CC(=O)[C@H]1[C@H](C#N)C[C@H]2[C@@H]3CC=C4C[C@@H](O)CC[C@]4(C)[C@H]3CC[C@@]21C,fold activation by cognate ligand (positive control),[5],23 fold
same,activation of Gal-SXR,"[3]; 2.5 μM hyperforin, 10 μM rifampicin, 3 μM ritonavir, 10 μM PCN",not
same,activation of Gal-L-SXR chimeric receptor,[3],not
COC(=O)CC[C@@H](C)[C@H]1CC[C@H]2[C@@H]3C[C@H](O)[C@@H]4C[C@H](O)CC[C@]4(C)[C@H]3CC[C@]12C [hyodeoxycholic acid methyl ester],fold activation by cognate ligand (positive control),[6]; 30 μM,4.5 fold
Cc1cc2c(cc1C1(c3ccc(C(=O)O)cn3)CC1)C(C)(C)CCC2(C)C [LG268],rate of [14C]-paclitaxel efflux versus untreated cells,[7],did not differ from controls
CC(=O)O[C@H]1C(=O)[C@@]2(C)[C@H]([C@H](OC(=O)c3ccccc3)[C@]3(O)C[C@H](OC(=O)[C@H](O)[C@@H](NC(=O)c4ccccc4)c4ccccc4)C(C)=C1C3(C)C)[C@]1(OC(C)=O)CO[C@@H]1[C@@H](O)[C@@H]2O [6α-hydroxypaclitaxel],activation of Gal-L-SXR chimeric receptor,[3],No activation
CC(C)c1nc(CN(C)C(=O)N[C@H](C(=O)N[C@@H](Cc2ccccc2)C[C@H](O)[C@H](Cc2ccccc2)NC(=O)OCc2cncs2)C(C)C)cs1 [ritonavir],effect on retinoic acid receptor α reporter activity,[8],no effect
same,effect on CARβ reporter activity,[1]; 3 μM ritonavir,no effect
same,effect on PPARα reporter activity,[9]; 3 μM ritonavir,no effect
same,effect on FXR reporter activity,[10],no effect
same,MDR1 mRNA expression,[11],strongly induced
same,effect on thyroid hormone receptor β reporter activity,[12],no effect
same,effect on LXRα reporter activity,[6]; 3 μM ritonavir,no effect
same,effect on RXRα reporter activity,[13]; 3 μM ritonavir,no effect
same,activation of Gal-RXR,"[13]; ritonavir dose response, same doses as for SXR",failed to activate
same,effect on PPARγ reporter activity,[14],no effect
same,MRP2 mRNA expression,"[2]; primary human hepatocytes, 3 μM ritonavir, 24 hour",activated expression
same,effect on estrogen receptor α reporter activity,[15],no effect
same,effect on PPARδ reporter activity,[4]; 3 μM ritonavir,no effect
"Cc1cccc(Nc2cc(Cl)nc(SCC(=O)O)n2)c1C [Wy 14,643]",fold activation by cognate ligand (positive control),[9]; 5 μM,13 fold
